We go through 1 compound from PMC9095416 (Medicinal Chemistry Research, 2022).

The target in assay [1] is T1, SARS-CoV-2 M^pro (Severe acute respiratory syndrome coronavirus 2, UniProt P0DTD1). The assay can be described thus: FRET-based enzymatic assay, SARS-CoV-2 M^pro. The settings on record: FRET assay M^pro IC50, 4 mM DTT. It counts as biochemical.
Assay [2] addresses SARS-CoV-2 PL^pro (Severe acute respiratory syndrome coronavirus 2, UniProt P0DTD1). Kind of assay: FRET-based enzymatic assay, SARS-CoV-2 PL^pro. In kind it is biochemical.
In assay [3] the target is T1, SARS-CoV-2 M^pro. The assay can be described thus: cell-based.

As to `Oc1cc(O)cc(Oc2c(O)cc(O)c3c2Oc2c(O)cc(Oc4c(O)cc(Oc5c(O)cc(O)c6c5Oc5c(O)cc(O)cc5O6)cc4O)cc2O3)c1` [Dieckol, dieckol], the IC50 (usually the concentration that inhibits the measured activity by half) is over 20 µM in assay [1], over 20 µM in assay [2] and over 60 µM in assay [3].
